Results as given in patent EP4818154A1, “EP4 AGONIST” (ONO Pharmaceutical Co., Ltd., priority 2023, dated 2025).

How the values were obtained:
DSS colitis mouse model = assay: Dextran sodium sulfate (DSS)-induced ulcerative colitis mouse model; format: in vivo, C57BL/6 mice; conditions: oral once a day Day 0 to Day 6, 2% DSS drinking water
Experimental: Adult C57BL/6 mice were used in this assay. The day on which 2% DSS drinking water started was defined as Day 0. A DSS solution was placed in a transparent plastic water bottle, and the mice were allowed to freely drink from Day 0 to Day 7 via a metal nozzle to induce ulcerative colitis. The test substance was orally administered once a day at a dose of 10 mL/kg for 7 days from Day 0 to Day 6. Stool conditions were observed every day from Day 0 to Day 7, and a disease activity index (DAI) was evaluated according to a reference score (Diarrhea score 0: normal stool, 1: loose stool, 2: diarrhea stool, 3: watery stool. Bloody stool score 0: normal stool, 1: brown mild bloody stool, 2: reddish color in stool, 3: melena); DAI score = diarrhea score + bloody stool score […].
The compounds of the present disclosure were tested in this assay. Efficacy in this model is evidenced by a decrease in the DAI score when compared to that of vehicle-treated animals (control group).

[1] = system: rat circulatory organ (blood pressure and heart rate); assay: Rat po circulatory organ evaluation test (blood pressure and heart rate); conditions: for safety margin (dose basis): rat no observed effect level compared with the effective amount in the mouse model of DSS-induced colitis; for no observed effect level on the rat circulatory organ (blood pressure and heart rate): single oral administration, unrestrained, awake rats
Excerpt: Regarding an action on the rat circulatory organ under unrestrained conditions and awakening, the test substance was orally administered once to Crl:CD (SD) male rats (4 animals/group) implanted with a telemetry transmitter (HD-S10, Data Sciences International, Inc.) or catheterized in the left carotid artery, and blood pressure (systolic, diastolic, and mean blood pressure) and heart rate were continuously measured.

[2] = system: monkey circulatory organ (blood pressure and heart rate); assay: Monkey po telemetry test (blood pressure and heart rate); conditions: for safety margin (dose basis): monkey no observed effect level compared with the effective amount in the mouse model of DSS-induced colitis; for no observed effect level on the monkey circulatory organ (blood pressure and heart rate): single oral administration, unrestrained, awake cynomolgus monkeys
Experimental: Regarding an action on the monkey circulatory organ under unrestrained conditions and awakening, the test substance was orally administered once to male cynomolgus monkeys (2 animals/dose) implanted with a telemetry transmitter (M11, Data Sciences International, Inc.), and blood pressure (systolic, diastolic, and mean blood pressure) and heart rate were continuously measured. The evaluation time point was set to before administration, 0.5, 1, 2, 4, 8, 10, 12, 16, or 24 hours after administration, and the average value for 1 minute at the evaluation time point was analyzed.

Row | SMILES | suppression of the control group score (DAI score) (DSS colitis mouse model; 0.3 mpk) [%] | safety margin (dose basis) [1] [times] | no observed effect level on the rat circulatory organ (blood pressure and heart rate) [1] [mg/kg] | safety margin (dose basis) [2] [times] | no observed effect level on the monkey circulatory organ (blood pressure and heart rate) [2] [mg/kg] | suppression of the control group score (DAI score) (DSS colitis mouse model; 3 mpk) [%] | suppression of the control group score (DAI score) (DSS colitis mouse model; 1 mpk) [%]
1 | CN(CCCCC[C@H](O)/C=C/[C@H]1CCC(=O)N1CCSc1nc(C(=O)NCCS(=O)(=O)O)cs1)c1ccccc1 [2-({[2-({2-[(2R)-2-{(1E,3S)-3-Hydroxy-8-[methyl(phenyl)amino]-1-octen-1-yl}-5-oxo-1-pyrrolidinyl]ethyl}thio)-1,3-thiazol-4-yl]carbonyl}amino)ethanesulfonic acid] | 50 | 100 | 30 | 10 | 3 | – | –
2 | COc1nccnc1SCCCCC[C@H](O)/C=C/[C@H]1CCC(=O)N1CCSc1nc(C(=O)NCCS(=O)(=O)O)cs1 [Example 12] | – | 10 | 30 | 10 | 30 | 50 | –
3 | CN(CCCCC[C@H](O)/C=C/[C@H]1CCC(=O)N1CCSc1nc(C(=O)O)cs1)c1ccccc1 [Example 2, 2-({2-[(2R)-2-{(1E,3S)-3-Hydroxy-8-[methyl(phenyl)amino]-1-octen-1-yl}-5-oxo-1-pyrrolidinyl]ethyl}thio)-1,3-thiazole-4-carboxylic acid] | 50 | – | – | – | – | – | –
4 | O=C(O)CCCSCCN1C(=O)CC[C@@H]1/C=C/[C@@H](O)Cc1cccc(NC(=O)c2ccccc2)c1 [Example 10, 4-({2-[(2R)-2-{(1E,3S)-4-[3-(Benzoylamino)phenyl]-3-hydroxy-1-buten-1-yl}-5-oxo-1-pyrrolidinyl]ethyl}thio)butanoic acid] | – | – | – | – | – | – | 50
5 | O=C(NCCS(=O)(=O)O)c1csc(SCCN2C(=O)CC[C@@H]2/C=C/[C@@H](O)CCCCCSc2ccccn2)n1 [Example 11, 2-[({2-[(2-{(2R)-2-[(1E,3S)-3-Hydroxy-8-(2-pyridinylthio)-1-octen-1-yl]-5-oxo-1-pyrrolidinyl}ethyl)thio]-1,3-thiazol-4-yl}carbonyl)amino]ethanesulfonic acid] | 50 | 100 | 30 | 1 | 0.3 | – | –
6 | O=C(O)c1csc(SCCN2C(=O)CC[C@@H]2/C=C/[C@@H](O)CCCCCSc2ccccn2)n1 [Example 1, 2-[(2-{(2R)-2-[(1E,3S)-3-Hydroxy-8-(2-pyridinylthio)-1-octen-1-yl]-5-oxo-1-pyrrolidinyl}ethyl)thio]-1,3-thiazole-4-carboxylic acid] | 50 | – | – | – | – | – | –
7 | O=C(CCCSCCN1C(=O)CC[C@@H]1/C=C/[C@@H](O)Cc1cccc(NC(=O)c2ccccc2)c1)NCCS(=O)(=O)O [2-{[4-({2-[(2R)-2-{(1E,3S)-4-[3-(Benzoylamino)phenyl]-3-hydroxy-1-buten-1-yl}-5-oxo-1-pyrrolidinyl]ethyl}thio)butanoyl]amino}ethanesulfonic acid] | – | 10 | 30 | – | – | 50 | –
